Paper PMC6295574, “Molecular and Functional Characterization of Odorant Binding Protein 7 From the Oriental Fruit Moth Grapholita molesta (Busck) (Lepidoptera: Tortricidae)” (Frontiers in Physiology, 2018)
Entries after “also recorded” stand apart in the source; their conditions may differ. Like-named read-outs stand apart in the source and are kept apart here.

What was measured:
[1] = molecular target: T1, rGmolOBP7 (recombinant GmolOBP7) (Grapholita molesta, UniProt A0A2R4SBC1); assay: biochemical; assay type: binding; details: for binding to rGmolOBP7 (in words): competitive binding, 1-NPN probe
T1 sequence (A0A2R4SBC1 entry or part of it): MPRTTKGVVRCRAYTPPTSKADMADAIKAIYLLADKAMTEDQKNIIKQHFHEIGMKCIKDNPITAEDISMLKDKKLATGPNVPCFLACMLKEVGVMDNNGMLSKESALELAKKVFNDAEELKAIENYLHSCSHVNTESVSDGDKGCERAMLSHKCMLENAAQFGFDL
Procedure: (§1) Fluorescence intensity was detected on a spectrophotofluorometer (F-4500, Hitachi, Japan) at room temperature using a quartz cuvette with a 1 cm light path. The silt width of excitation and emissions were all 10 nm. The fluorescence probe 1-NPN was excited at 337 nm and the emission spectra were recorded between 370 and 550 nm. Four sex pheromone components and 31 volatiles, derived from peach shoots and pear fruits, were selected for binding assays (Table 2). The probe 1-NPN and tested ligands were all dissolved in spectrophotometric-grade methanol to obtain a 1 mM stock solution.
The corresponding florescence intensity values were collected as three independent measurements. The binding constant (K1−NPN) of 1-NPN to rGmolOBP7 was calculated using GraphPad Prism 5 software (GraphPad Software, Inc.) via nonlinear regression for a unique site of binding.

[2] = tested on: Grapholita molesta antennae; assay: EAG responses of GmolOBP7-dsRNA-injected moths to stimulants; details: stimulant 10 mg/mL in liquid paraffin; for EAG response of dsRNA-treated moths vs non-injected control: male and female moths, 1-day-old; for EAG response of dsGmolOBP7-injected male moths vs dsGFP-injected and non-injected controls: 1-day-old males
Procedure: Based on the expression patterns observed at different insect stages, 5-day-old G. molesta pupae (later-pupae) were selected to receive a dsRNA microinjection. The conjunctivum between the prothorax and mesothorax, the conjunctivum between the mesothorax and metathorax and the conjunctivum between the thorax and abdomen were initially selected as putative injection sites. Then, 39, 69, and 138 nL of RNase-free H2O were injected into different conjunctiva, respectively. A total of 69 nL (approximately 241.5 ng dsRNA) of dsGmolOBP7 or dsGFP was injected into the appropriate injection sites of each 5-day-old pupa, by using a PL1-100 Pico-Injector (Harvard Apparatus, Holliston, MA, USA) operated by an MP-255 Micromanipulator (Sutter, Novato, CA, USA). Each type of dsRNA was injected into 600 male and 600 female moths. The heads (with antenna) of 1-, 2-, 3-, and 4 day-old adults were dissected and immediately stored at −80°C prior to use. The total RNA and first-strand cDNA were obtained in accordance with previous methods. The specimens were used for qRT-PCR analysis to test the reduction in GmolOBP7 transcription. Experiments were performed with three biological replicates and three technical replicates.
EAG responses of dsRNA-injected (including dsGmolOBP7 and dsGFP) moths and non-injected controls, to sex pheromones and host plant volatiles were detected using Electroantennography. All stimulants were diluted with liquid paraffin to the final concentration of 10 mg/mL. Liquid paraffin and cis-3-hexenyl acetate were used as the blank and reference control, respectively. Both ends of adult antennae were cut and blocked with a drop of Spectra® 360 Electrode Gel (Parker Laboratories, Fairfield, USA). The basal section was connected to the reference electrode while the distal end was linked to the recording electrode. A filtered humidified air stream was delivered by a Syntech stimulus controller (CS55 model, Syntech, Germany) at a constant flow rate of 50 cm/s, and the time of stimuli flow was 0.5 s. Filter paper strips (0.6 cm × 4.5 cm) were dripped with 15 μL of chemical solution as a stimulus source and inserted into a 1.5 mL micropipet tip. A set of stimulants consisted of four sex pheromones and five host-plant volatiles which can be strongly bound with rGmolOBP7. Each antenna measured the group of randomly arranged stimulants described above. The antennae were stimulated one time with liquid paraffin and cis-3-hexenyl acetate and dissolved in solvent, before and after each group stimulation, in order to ensure the tested antenna were activated and the connecting pipe was not contaminated by stimulants. Recordings per stimulant were taken and the antennal responses were recorded. Eight male and female antennae were measured for each stimulant. The paired t-test was used to determine whether the difference in EAG values were significant between the dsRNA injected moths (dsGmolOBP7 and dsGFP) and the non-injected control. All the data were analyzed using SPSS 18.0 software (SPSS Inc., Chicago, IL, USA).

[3] = molecular target: T1, rGmolOBP7 (recombinant GmolOBP7); assay: Binding of fluorescence probe 1-NPN to rGmolOBP7 (binding curve, Scatchard plot); details: 2 μM protein in 20 mM Tris-HCl pH 7.4, 1-NPN up to 18 μM; read-out: dissociation constant (Kd) of 1-NPN
Procedure: as §1, with “solution. The binding affinity of rGmolOBP7 with 1-NPN was measured by adding aliquots of 1-NPN to a 2 μM protein solution (diluted with 20 mM Tris-HCl pH 7.4) to final concentrations of 0 to 18 μM.” for “solution.”
The corresponding florescence intensity values were collected as three independent measurements. The binding constant (K1−NPN) of 1-NPN to rGmolOBP7 was calculated using GraphPad Prism 5 software (GraphPad Software, Inc.) via nonlinear regression for a unique site of binding. The dissociation constant (Ki) of each ligands competitive binding to rGmolOBP7, were calculated from the corresponding IC50, by using the equation Ki = [IC50]/(1+[1-NPN]/K1−NPN), where [1-NPN] is the free concentration of 1-NPN, and K1−NPN is the dissociation constant of the complex protein/1-NPN.

[4] = tested on: male antennae of G. molesta; parameters: method as in Cardé et al., 1975, 1979; details: ref Cardé et al., 1975, 1979; cited from earlier work
[5] = 2 μM rGmolOBP7 and 2 μM 1-NPN, 20 mM Tris-HCl pH 7.4, room temperature, three independent measurements, read-out: IC50
[6] = calculated from IC50 by Ki = [IC50]/(1+[1-NPN]/K1-NPN), read-out: Ki

Structure (SMILES)	IC50 [1, 5] [µM]	Ki [1, 6] [µM]	IC50 [1] [µM]	Ki [1] [µM]	also measured
CCCCCCCCCCCC=O [Lauraldehyde]	6.18 ± 0.43	4.31	–	–	EAG response of dsRNA-treated moths vs non-injected control [2]: not significantly different
CCC/C=C/C=O [(E)-2-Hexenal]	–	–	24.4 ± 1.53	17	–
CCC/C=C/CCCCCCCOC(C)=O [(E)-8-dodecenyl acetate]	> 35	> 35	–	–	binding to rGmolOBP7 (in words) [1]: did not bind; EAG response of dsRNA-treated moths vs non-injected control [2]: not significantly different
COC(=O)c1ccccc1O [Methyl salicylate]	–	–	14.1 ± 0.22	9.81	–
O=Cc1ccccc1 [Benzaldehyde]	–	–	20.2 ± 0.27	14.1	–
CCCCCCCCCCCCCCCC(=O)OC [Methyl palmitate]	> 35	> 35	–	–	–
C=C1CC/C=C(\C)CC[C@@H]2[C@@H]1CC2(C)C [β-Caryophyllene]	–	–	> 35	> 35	–
C=C/C(C)=C/CCC(=C)C [α-Ocimene]	11.1 ± 0.2	7.75	–	–	EAG response of dsRNA-treated moths vs non-injected control [2]: not significantly different
CCCCCCC=O [Heptanal]	–	10.9	15.7 ± 0.64	–	–
CC/C=C\CC1C(=O)CCC1CC(=O)OC (stereo not drawn) [Methyl jasmonate]	18.7 ± 0.22	13	–	–	–
CCCCCCCCCCCCCCO [1-Tetradecanol]	–	–	> 35	> 35	–
C=C1[C@@H]2CC[C@@H](C2)C1(C)C [(-)-Camphene]	> 35	> 35	–	–	–
CC/C=C\CCO [(Z)-3-Hexen-1-ol]	–	–	17.6 ± 0.52	12.3	–
CCCCCCCCCCO [1-Decanol]	–	–	> 35	> 35	–
C=CC(C)(O)CCC=C(C)CCC=C(C)C (mixture of isomers) [Nerolidol]	> 35	> 35	–	–	–
CCCCCCO [1-Hexanol]	–	17.4	24.9 ± 1.28	–	–
CCCCCCCCCC=O [Decanal]	18.2 ± 1.27	12.7	–	–	–
CCCCCCCCC=O [Nonanal]	28.6 ± 3.38	19.9	–	–	–

Structure (SMILES)	IC50 [1, 5] [µM]	Ki [1, 6] [µM]	IC50 [1] [µM]	Ki [1] [µM]	also measured
CC/C=C\CCOC(C)=O [(Z)-3-Hexenyl acetate]	19.6 ± 0.27	13.7	–	–	EAG response of dsRNA-treated moths vs non-injected control [2]: not significantly different
c1ccc(Nc2cccc3ccccc23)cc1 [1-NPN, N-phenyl-1-naphthylamine]	–	–	–	–	Kd [3]: 2.3 µM
CCC(C)=CCCC(C)=CC#N [Lemonile]	> 35	> 35	–	–	–
N#Cc1ccccc1 [Benzonitrile]	–	–	17.9 ± 1.29	12.5	–
CCC/C=C\CCCCCCCOC(C)=O [(Z)-8-dodecenyl acetate]	–	–	–	–	binding to rGmolOBP7 (in words) [1]: did not bind; EAG response of dsRNA-treated moths vs non-injected control [2]: not significantly different
CCCCCCCCCCCCCCCCO [1-Hexadecanol]	> 35	> 35	–	–	–
CCCCCC=O [Hexanal]	–	–	27.4 ± 1.59	19.1	–
CCCCCCCCCCCCO [1-Dodecanol]	10.7 ± 0.85	7.48	–	–	EAG response of dsGmolOBP7-injected male moths vs dsGFP-injected and non-injected controls ([2]; 15 μL): significantly reduced; EAG response of dsGmolOBP7-injected male moths vs dsGFP-injected and non-injected controls ([2]; 15 μL, listed as 12:OH): significantly decreased; EAG response of male antennae [4]: weak EAG response
CCCCOC(C)=O [Butyl acetate]	–	–	18.1 ± 1.57	12.6	–
CCCCCCCCCCCCCC=O [Tetradecanal]	> 35	> 35	–	–	–
CCCCOC(=O)CCC [Butyl butyrate]	16.3 ± 1.71	11.3	–	–	–
CC1=CCC2CC1C2(C)C (stereo not drawn) [α-Pinene]	–	–	17.1 ± 1.2	11.9	EAG response of dsRNA-treated moths vs non-injected control [2]: not significantly different
OCc1ccccc1 [Benzyl alcohol]	–	–	> 35	> 35	–
CCCCCC(=O)OCCCC [Butyl hexanoate]	24.4 ± 0.77	17	–	–	–
C=CC(C)(O)CCC=C(C)C (stereo not drawn) [Linalool]	–	–	21.7 ± 1.11	15.1	–
CCCCCCCCCCCCCC(=O)OC [Methyl myristate]	> 35	> 35	–	–	–
CCCCC/C=C\C=C\C(=O)OCC [Pear ester, Ethyl (E, Z)-2,4-decadienate]	3.62 ± 0.25	2.52	–	–	EAG response of dsGmolOBP7-injected female moths vs dsGFP-injected and non-injected controls ([2]; 1-day-old females, 15 μL): significantly reduced; also recorded: significantly decreased; EAG response of dsGmolOBP7-injected male moths vs dsGFP-injected and non-injected controls ([2]; 15 μL): significantly reduced; also recorded: significantly decreased
CCC/C=C\CCCCCCCO [(Z)-8-dodecenyl alcohol]	> 35	> 35	–	–	binding to rGmolOBP7 (in words) [1]: did not bind; EAG response of dsRNA-treated moths vs non-injected control [2]: not significantly different
